Test [1] has as its system IL-17A secreted from antiCD3/CD28 stimulated Peripheral Blood Mononuclear cells (PBMC). Nature of the test: Peripheral Blood Mononucleocyte Cell Assay (PBMC Assay-IL-17). The format is cell-based. The conditions noted are these: inhibition of IL-17A release, CD3/CD28 bead stimulated human PBMC, 48 hours; read-out: mean pIC50 (converted). An excerpt: Peripheral Blood Mononucleocyte Cell Assay (PBMC Assay-IL-17)
RORs (Retinoic Acid Related Orphan Receptors) are members of the class 1 nuclear receptor family. RORs regulate gene transcription by binding to specific DNA response element (RORE) as a monomer and have critical roles of in development, immunity, circadian rhythm, and cellular metabolism (recently reviewed by A Jetten, Nuclear Receptor Signaling, 2009, 7, 1-32) One member of this nuclear receptor family, RORγt, has been identified as a regulator of differentiation and development of IL-17-expressing human and mouse CD4+ T cells, so called Th17 cells which play a role in both host defence and inflammatory disorders. RORγt is also required for transcription of the genes encoding IL-17A and IL-17F in iNKT, NKT (Immunol 2009, 2(5), 383-392, J. Immunol, 2008, 180, 51(67), 5171-5171), γδTcells (J. Resp and Crit. Care Med 2010, 182(4), 464-476), CD8^+ Tcell (J Leukocyte Biol, 2007, 82(2), 354-360) and finally CD4-CD8-TCRαβ^+ T cells (J. Immunol. 2008, 181 8761-8766). Additional immune cells such as eosinophils, neutrophils and macrophages can also be source of IL17A in some allergic inflammation related to asthma (J Allergy Clin Immunol 2001, 108, 430-438; J. Immunol, 2008, 181, 6117-6124; Immunity, 2004, 21, 467-476), however, the link with RORγt has not yet been confirmed in the literature.
This assay is designed to measure levels of IL-17A secreted from antiCD3/CD28 stimulated frozen Peripheral Blood Mononuclear cells (PBMC) isolated from human blood with the aim of identifying inhibitors of IL-17A release.
• 1. Ensure no external endotoxin is present in media and reagents used in the assay. • 2. The compounds for screening are dispensed into a master plate at 10 mM top concentration which are serially diluted 1:3 across 11 points in DMSO, then 500 nl is transferred into a 384-well flat-bottomed Greiner plate to which 50 ul of cell suspension is added: for the single shot screening the highest concentration of compound is 10^−5M; for 11 point full curve dose response studies the highest concentration is […]. • Controls: • As a low control, DMSO (as supplied, for example, by VWR) (final concentration 1%) in column 6 (16 points). • As a high control, 5-(4-fluorophenyl)-2-ureidothiophene-3-carboxamide (obtainable from, for example, Sigma) at a final concentration of 10^−4 M in DMSO should be used in column 18 (16 points). • If the compounds dispensed earlier than the day of the assay, they should be kept at −20° C.
Protocol Step 2: Day 1: Thawing and Handing of PBMC • 1. Thaw PBMC in the vial using water bath (37° C.). […] Transfer the contents of the vial into 50 mL Falcon tube. • 3. Add 10 mL of Assay Media drop by drop to decrease the concentration of DMSO (as supplied, for example, by VWR) in the freezing media gradually. • 4. Spin down the cells in a centrifuge (1000 rpm-5 mins). • 5. Decant the supernatant. • 6. Re-suspend the cells in 10 mL of Assay Media. • 7. Transfer of 0.1 mL of suspension into Cedex counting tube. • 8. Add 0.9 mL of media to achieve volume of the suspension for counting up to 1 mL. Count the cells on Cedex using 1:10 dilution factor settings. • 9. Make the cell suspension at the concentration 8×10^5 cells/mL. to give a final number of 40,000 cells/well. Protocol Step 3: Day 1: Stimulation of PBMC with CD3/CD28 beads • 1. Add well mixed CD3/CD28 Dynabeads (as supplied, for example, by Dynal) to achieve ratio bead:cell=2:1 (i.e a dilution of 1 in 20). Mix thoroughly. • 2. Dispense the suspension into the 384 Assay Plates using Multidrop (50 ul per well). • If the volume of cell suspension is large, mix the suspension after dispensing into every other plate. • 3. Cover the plates with the lids and place them to the humidified incubator (37° C., 5% CO2) for 48 hours. Protocol Step 4: Day 2: MSD plates preparation • 1. […]

The target of test [2] is T1, Human RORγ Ligand Binding Domain (RORγ-LBD) (Homo sapiens, UniProt P51449).
T1 construct: His6 plus thrombin site) (N); made in house; host or cells: E. coli BL21(DE3), modified pET21a
T1 sequence (P51449 263-518): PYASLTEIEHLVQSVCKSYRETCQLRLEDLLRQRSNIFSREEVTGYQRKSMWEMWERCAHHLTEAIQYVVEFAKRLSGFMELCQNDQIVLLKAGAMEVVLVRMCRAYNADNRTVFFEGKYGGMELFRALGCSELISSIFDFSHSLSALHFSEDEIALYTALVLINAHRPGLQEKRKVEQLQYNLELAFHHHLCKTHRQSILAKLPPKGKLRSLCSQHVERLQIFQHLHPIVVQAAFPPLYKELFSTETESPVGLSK
The experiment in a line: Dual Fluorescence Energy Transfer (FRET) assay: RORγ-LBD / SRC1(2) co-activator peptide interaction. The format is biochemical. The conditions noted are these: RORγ-LBD/SRC1(2) peptide interaction, read-out: mean pIC50 (converted). An excerpt:
Dual Fluorescence Energy Transfer (FRET) Assay
This assay is based on the knowledge that nuclear receptors interact with cofactors (transcription factors) in a ligand dependent manner. RORγ is a typical nuclear receptor in that it has an AF2 domain in the ligand binding domain (LBD) which interacts with co-activators. The sites of interaction have been mapped to the LXXLL (SEQ ID NO:1) motifs in the co-activator SRC1(2) sequences. Short peptide sequences containing the LXXLL (SEQ ID NO:1) motif mimic the behavior of full-length co-activator.
This assay measures ligand-mediated interaction of the co-activator peptide with the purified bacterial-expressed RORγ ligand binding domain (RORγ-LBD) to indirectly assess ligand binding. RORγ has a basal level of interaction with the co-activator SRC1(2) in the absence of ligand, Thus, it is possible to find ligands that inhibit or enhance the RORγ/SRC1(2) interaction.
Human RORγ Ligand Binding Domain (RORγ-LBD) was expressed in E. coli strain BL21(DE3) as an amino-terminal polyhistidine tagged fusion protein. DNA encoding this recombinant protein was sub-cloned into a modified pET21a expression vector (Novagen). A modified polyhistidine tag (MKKHHHHHHLVPRGS) (SEQ ID NO:2)was fused in frame to residues 263-518 of the human RORγ sequence.
Approximately 50 g E. coli cell pellet was resuspended in 300 mL of lysis buffer (30 mM imidazole pH 7.0 and 150 mM NaCl). Cells were lysed by sonication and cell debris was removed by centrifugation for 30 minutes at 20,000 g at 4° C. The cleared supernatant was filtered through a 0.45 uM cellulose acetate membrane filter. The clarified lysate was loaded onto a column (XK-26) packed with ProBond Nickel Chelating resin (InVitrogen), pre-equilibrated with 30 mM imidazole pH 7.0 and 150 mM NaCl. After washing to baseline absorbance with the equilibration buffer, the column was developed with a gradient from 30 to 500 mM imidazole pH 7.0. Column fractions containing the RORγ-LBD protein were pooled and concentrated to a volume of 5 mLs. The concentrated protein was loaded onto a Superdex 200 column pre-equilibrated with 20 mM Tris-Cl pH 7.2 and 200 mM NaCl. The fractions containing the desired RORγ-LBD protein were pooled together.
Purified RORγ-LBD was buffer exchanged by exhaustive dialysis [3 changes of at least 20 volumes (>8000×)] against PBS [100 mM NaPhosphate, pH 8 and 150 mM NaCl]. The concentration of RORγ-LBD was approximately 30 uM in PBS. Five-fold molar excess of NHS-LC-Biotin (Pierce) was added in a minimal volume of PBS. This solution was incubated with occasional gentle mixing for 60 minutes at ambient room temperature. The modified RORγ-LBD was dialyzed against 2 buffer changes—TBS pH 8.0 containing 5 mM DTT, 2 mM EDTA and 2% sucrose—each at least 20 times of the volume. The modified protein was distributed into aliquots, frozen on dry ice and stored at −80° C. The biotinylated RORγ-LBD was subjected to mass spectrometric analysis to reveal the extent of modification by the biotinylation reagent. In general, approximately 95% of the protein had at least a single site of biotinylation and the overall extent of biotinylation followed a normal distribution of multiple sites ranged from one to five.
A biotinylated peptide corresponding to amino acid 676 to 700 ([…]) (SEQ ID NO:3)of the co-activator steroid receptor coactivator SRC1(2) was generated using similar method.
Biotinylated SRC1(2) solution was prepared by adding an appropriate amount of biotinylated SRC1(2) from the 100 uM stock solution to a buffer containing 10 mM of freshly added DTT from solid to give a final concentration of 40 nM. An appropriate amount of Europium labeled Streptavidin was then added to the biotinylated SRC1(2) solution in a tube to give a final concentration of 10 nM. The tube was inverted gently and incubated for 15 minutes at room temperature. […]

`CCc1ccc(N(CC(C)C)S(=O)(=O)c2ccc(OCc3c(C)noc3C)cc2)cc1` [Product P160, 4-((3,5-dimethylisoxazol-4-yl)methoxy)-N-(4-ethylphenyl)-N-isobutylbenzenesulfonamide]: the IC50 in test [1] was at most 1 µM; in test [2], at most 0.0158 µM.
